Measured values as given in patent US20130012546A1 (priority 2009, published 2013).

How the values were obtained:
Phytophthora infestans = type: in vivo; conditions: tomato plants, preventive spray, 100 ppm of active ingredient, evaluated 7 days after inoculation
Plasmopara viticola = assay: Plasmopara test (grapevines) / preventive; type: in vivo; conditions: preventive spray, 10 ppm of active ingredient, evaluated 6 days after inoculation
Procedure: Plasmopara Test (Grapevines)/Preventive
Solvent: 24.5 parts by weight of acetone • 24.5 parts by weight of dimethylacetamide Emulsifier: 1 part by weight of alkylaryl polyglycol ether
To produce a suitable preparation of active compound, 1 part by weight of active compound is mixed with the stated amounts of solvent and emulsifier, and the concentrate is diluted with water to the desired concentration.
To test for preventive activity, young plants are sprayed with the preparation of active compound at the stated rate of application. After the spray coating has dried on, the plants are inoculated with an aqueous spore suspension of Plasmopara viticola and then remain for 1 day in an incubation cabinet at approximately 20° C. and a relative atmospheric humidity of 100%. The plant is subsequently placed for 4 days in a greenhouse at approximately 21° C. and a relative atmospheric humidity of approximately 90%. The plants are then misted and placed for 1 day in an incubation cabinet.
The test is evaluated 6 days after the inoculation. 0% means an efficacy which corresponds to that of the untreated control, while an efficacy of 100% means that no disease is observed.

logP(HCOOH) by HPLC = type: physicochemical; conditions: for log p: HPLC on reversed phase columns, pH 2.7, 0.1% formic acid in water / acetonitrile, linear gradient 10% to 95% acetonitrile, EEC directive 79/831 Annex V.A8

| SMILES | Efficacy % (Phytophthora infestans) [%] | Efficacy % (Plasmopara viticola) [%] | log p (logP(HCOOH) by HPLC) | chromatographic logP (logP(HCOOH) by HPLC; reversed phase HPLC column, pH 2.7, HCOOH, read-out: logP(HCOOH)) |
| --- | --- | --- | --- | --- |
| Cc1nnnn1C(=NOCc1csc(NC(=O)COC2CCCC2)n1)c1ccccc1 [Example 86] | 95 | 81 | 3.6 |  |
| Cn1nnnc1C(=NOCc1csc(NC(=O)COC2CCCC2)n1)c1ccccc1 [Example 84] | 98 | 90 | 3.53 |  |
| CC(OC1CCCCC1)C(=O)Nc1nc(CON=C(c2ccccc2)c2nnnn2C)cs1 (centres unmarked) [Example 92] | 100 | 93 | 4.14 |  |
| C=CCOC(C)C(=O)Nc1nc(CO/N=C(/c2ccccc2)n2nnnc2C)cs1 (centres unmarked) [Example 45] | 95 | 84 | 3.19 |  |
| C=CCCCOCC(=O)Nc1nc(CON=C(c2ccccc2)c2nnnn2C)cs1 [Example 6] | 95 | 90 | 3.52 |  |
| C=CCOC(C)C(=O)Nc1cccc(CO/N=C(/c2ccccc2)c2nnnn2C)n1 (centres unmarked) [Example 42] | 98 | 70 | 3.35 |  |
| C=CCOC(C)C(=O)Nc1nc(CO/N=C(/c2ccccc2)c2nnnn2C)cs1 (centres unmarked) [Example 48] | 100 | 74 | 3.13 |  |
| Cc1nnnn1C(=NOCc1cccc(NC(=O)OCCCC2CC2)n1)c1ccccc1 [Example 18] | 100 | 72 | 4.29 |  |
| Cc1nnnn1C(=NOCc1cccc(NC(=O)OCC2CCCC2)n1)c1ccccc1 [Example 20] | 95 | 97 | 4.41 |  |
| Cc1nnnn1C(=NOCc1csc(NC(=O)C(C)OC2CCCC2)n1)c1ccccc1 (centres unmarked) [Example 93] | 100 | 91 | 3.87 |  |
| CC(OC1CCCC1)C(=O)Nc1nc(CO/N=C(/c2ccccc2)c2nnnn2C)cs1 (centres unmarked) [Example 97, 2-(cyclopentyloxy)-N-{4-[({[(Z)-(1-methyl-1H-tetrazol-5-yl)(phenyl)methylene]amino}oxy)methyl]-1,3-thiazol-2-yl}propanamide] | 95 |  |  | 3.8 |
| Cc1nnnn1C(=NOCc1csc(NC(=O)OCC2CC2)n1)c1ccccc1 [Example 26] | 70 |  | 3.27 |  |
| Cc1nnnn1C(=NOCc1csc(NC(=O)C(C)OC2CCCCC2)n1)c1ccccc1 (centres unmarked) [Example 94] | 93 |  | 4.21 |  |
| Cc1nnnn1C(=NOCc1csc(NC(=O)COC2CCC2)n1)c1ccccc1 [Example 82] | 90 |  | 3.25 |  |
| C=CCCOC(C)C(=O)Nc1nc(CO/N=C(/c2ccccc2)n2nnnc2C)cs1 (centres unmarked) [Example 43] | 95 |  | 3.53 |  |
| C=CCCOCC(=O)Nc1cccc(CO/N=C(/c2ccccc2)c2nnnn2C)n1 [Example 40] | 85 |  | 3.39 |  |
| Cn1nnnc1C(=NOCc1csc(NC(=O)COC2CCC2)n1)c1ccccc1 [Example 80] | 90 |  | 3.19 |  |
| Cc1nnnn1C(=NOCc1cccc(NC(=O)OCCCC2CCCC2)n1)c1ccccc1 [Example 21] | 95 |  | 5.25 |  |
| Cn1nnnc1C(=NOCc1csc(NC(=O)OCC2CC2)n1)c1ccccc1 [Example 63] | 100 | 93 | 3.23 |  |

| SMILES | Efficacy % (Phytophthora infestans) [%] | Efficacy % (Plasmopara viticola) [%] | log p (logP(HCOOH) by HPLC) | chromatographic logP (logP(HCOOH) by HPLC; reversed phase HPLC column, pH 2.7, HCOOH, read-out: logP(HCOOH)) |
| --- | --- | --- | --- | --- |
| CC(C)=NOC(C)C(=O)Nc1nc(CO/N=C(/c2ccccc2)c2nnnn2C)cs1 (centres unmarked) [Example 35] | 95 |  | 3.11 |  |
| Cn1nnnc1C(=NOCc1cccc(NC(=O)COC2CCCCC2)n1)c1ccccc1 [Example 77] | 93 |  | 4.15 |  |
| CON=C(C(=O)Nc1nc(CON=C(c2ccccc2)n2nnnc2C)cs1)c1ccc(Cl)cc1 [Example 28] | 80 |  | 4.32 |  |
| CON=C(C(=O)Nc1cccc(CON=C(c2ccccc2)c2nnnn2C)n1)c1ccc(Cl)cc1Cl [Example 1] | 95 |  | 4.7 |  |
| CON=C(C(=O)Nc1cccc(CON=C(c2ccccc2)c2nnnn2C)n1)c1ccccc1Cl [Example 2] | 98 |  | 4.13 |  |
| CON=C(C(=O)Nc1nc(CON=C(c2ccccc2)n2nnnc2C)cs1)c1ccc(Cl)cc1Cl [Example 23] | 90 |  | 4.49 |  |
| Cn1nnnc1C(=NOCc1csc(NC(=O)OCC2CCCCC2)n1)c1ccccc1 [Example 61] | 98 |  | 4.37 |  |
| Cc1nnnn1C(=NOCc1cccc(NC(=O)COC2CCCCC2)n1)c1ccccc1 [Example 79] | 90 |  | 4.25 |  |
| CON=C(C(=O)Nc1nc(CON=C(c2ccccc2)c2nnnn2C)cs1)c1ccc(Cl)cc1Cl [Example 9] | 95 |  | 4.41 |  |
| Cc1nnnn1C(=NOCc1cccc(NC(=O)COC2CCCC2)n1)c1ccccc1 [Example 87] | 90 |  | 3.92 |  |
| Cc1nnnn1C(=NOCc1cccc(NC(=O)OCC2CCCCC2)n1)c1ccccc1 [Example 16] | 95 | 85 | 4.8 |  |
| Cc1nnnn1C(=NOCc1csc(NC(=O)COC2CCCCCC2)n1)c1ccccc1 [Example 89] | 100 | 73 | 4.3 |  |
| Cc1nnnn1C(=NOCc1csc(NC(=O)OCC2CCCCC2)n1)c1ccccc1 [Example 25] | 93 |  | 4.41 |  |
| C=CCCCOCC(=O)Nc1cccc(CON=C(c2ccccc2)c2nnnn2C)n1 [Example 5] | 95 |  | 3.78 |  |
| CC1CCC(C(C)C)C(OCC(=O)Nc2nc(CON=C(c3ccccc3)c3nnnn3C)cs2)C1 (centres unmarked) [Example 107] | 95 |  | 5.39 |  |
| Cc1nnnn1C(=NOCc1csc(NC(=O)C(C)OC2CCCCCC2)n1)c1ccccc1 (centres unmarked) [Example 96] | 98 |  | 4.58 |  |
| C=CCCOCC(=O)Nc1nc(CO/N=C(/c2ccccc2)c2nnnn2C)cs1 [Example 47] | 95 | 82 | 3.19 |  |
| C#CCOC(C)C(=O)Nc1cccc(CO/N=C(/c2ccccc2)c2nnnn2C)n1 (centres unmarked) [Example 50] | 95 |  | 3.04 |  |
| CC(CC1CC1)OC(=O)Nc1nc(CON=C(c2ccccc2)c2nnnn2C)cs1 (centres unmarked) [Example 64] | 95 | 94 | 3.83 |  |

| SMILES | Efficacy % (Phytophthora infestans) [%] | Efficacy % (Plasmopara viticola) [%] | log p (logP(HCOOH) by HPLC) | chromatographic logP (logP(HCOOH) by HPLC; reversed phase HPLC column, pH 2.7, HCOOH, read-out: logP(HCOOH)) |
| --- | --- | --- | --- | --- |
| Cc1nnnn1C(=NOCc1cccc(NC(=O)OC(C)CC2CC2)n1)c1ccccc1 (centres unmarked) [Example 14] | 95 | 94 | 4.24 |  |
| CC(=NOCC(=O)Nc1nc(CON=C(c2ccccc2)c2nnnn2C)cs1)C(C)(C)C [Example 34] | 90 |  | 3.99 |  |
| CC(C)=NOC(C)C(=O)Nc1nc(CO/N=C(/c2ccccc2)n2nnnc2C)cs1 (centres unmarked) [Example 38] | 88 |  | 3.17 |  |
| C=CCCOC(C)C(=O)Nc1cccc(CO/N=C(/c2ccccc2)c2nnnn2C)n1 (centres unmarked) [Example 41] | 100 |  | 3.69 |  |
| Cc1nnnn1C(=NOCc1csc(NC(=O)OCCC2CCCCC2)n1)c1ccccc1 [Example 24] | 88 |  | 4.8 |  |
| Cc1nnnn1C(=NOCc1cccc(NC(=O)COC2CCCCCC2)n1)c1ccccc1 [Example 88] | 95 |  | 4.67 |  |
| CC(OC1CCCCCC1)C(=O)Nc1nc(CON=C(c2ccccc2)c2nnnn2C)cs1 (centres unmarked) [Example 95] | 95 |  | 4.51 |  |
| CON=C(C(=O)Nc1nc(CON=C(c2ccccc2)n2nnnc2C)cs1)c1ccccc1Cl [Example 27] | 85 |  | 3.92 |  |
| Cn1nnnc1C(=NOCc1cccc(NC(=O)COC2CCCC2)n1)c1ccccc1 [Example 85] | 95 |  | 3.83 |  |
| C=CCCOCC(=O)Nc1nc(CO/N=C(/c2ccccc2)n2nnnc2C)cs1 [Example 44] | 93 |  | 3.23 |  |
| C#CCOCC(=O)Nc1cccc(CON=C(c2ccccc2)n2nnnc2C)n1 [Example 22] | 70 |  | 2.86 |  |
| CC1CCC(C(C)C)C(OCC(=O)Nc2nc(CON=C(c3cccc(F)c3)c3nnnn3C)cs2)C1 (centres unmarked) [Example 109] | 84 |  | 5.47 |  |
| Cc1nnnn1C(=NOCc1cccc(NC(=O)OCC2CC2)n1)c1ccccc1 [Example 17] | 93 |  | 3.52 |  |
| C#CCOC(C)C(=O)Nc1cccc(CO/N=C(/c2ccccc2)n2nnnc2C)n1 (centres unmarked) [Example 52] | 93 |  | 3.11 |  |
| CC(=NOCC(=O)Nc1nc(CON=C(c2ccccc2)n2nnnc2C)cs1)C(C)(C)C [Example 37] | 88 |  | 4.04 |  |
| Cc1nnnn1C(=NOCc1cccc(NC(=O)OCCCC2CCCCC2)n1)c1ccccc1 [Example 19] | 95 |  | 5.62 |  |
| CC(OC1CCCC1)C(=O)Nc1cccc(CON=C(c2ccccc2)c2nnnn2C)n1 (centres unmarked) [Example 98] | 98 |  | 4.11 |  |
| Cn1nnnc1C(=NOCc1cccc(NC(=O)COC2CCCCCC2)n1)c1ccccc1 [Example 90] | 100 |  | 4.56 |  |
